{"source": "patent US11198713B2", "about": "“Agents modulating beta-catenin functions and methods thereof” (FOG PHARMACEUTICALS, INC., priority 2017, dated 2021)", "note": "Numbered stars: 1 amine (or outer) side, 2 acyl side, 3 side chain; on linkers, the order of the positions; unused ones are H or OH. Bridge positions count the residues as written; N and C are the ends. Square brackets hold non-standard residues; d marks the D form. Peptide text beside a SMILES is read from it. dαMeDap(Me) = CN(C[C@@](C)(N[*:1])C(=O)[*:2])[*:3]; X14 = O=C([C@@]1(N[*:1])CCN(CC=[*:3])C1)[*:2]; X11 = CN(CC=[*:3])C[C@](C)(N[*:1])C(=O)[*:2]; X6 = CN(CC=[*:3])CC[C@](C)(N[*:1])C(=O)[*:2]; X5 = C[C@](CCCCCC=[*:3])(N[*:1])C(=O)[*:2]; X3 = O=C([C@@]1(N[*:1])CCN([*:3])C1)[*:2]; X7 = C[C@](CCCCC=[*:3])(N[*:1])C(=O)[*:2]; X2 = O=C(OCC=CCOC(=O)[*:2])[*:1]; S8 = C=CCCCCCC[C@](C)(N)C(=O)O"}
{"molecular_target": "T1, full-length beta-catenin (Axin site) (Homo sapiens, UniProt P35222)", "T1 construct": "15 nM full-length beta-catenin, 20 nM FITC labeled peptide in buffer", "T1 sequence (P35222 1-781)": "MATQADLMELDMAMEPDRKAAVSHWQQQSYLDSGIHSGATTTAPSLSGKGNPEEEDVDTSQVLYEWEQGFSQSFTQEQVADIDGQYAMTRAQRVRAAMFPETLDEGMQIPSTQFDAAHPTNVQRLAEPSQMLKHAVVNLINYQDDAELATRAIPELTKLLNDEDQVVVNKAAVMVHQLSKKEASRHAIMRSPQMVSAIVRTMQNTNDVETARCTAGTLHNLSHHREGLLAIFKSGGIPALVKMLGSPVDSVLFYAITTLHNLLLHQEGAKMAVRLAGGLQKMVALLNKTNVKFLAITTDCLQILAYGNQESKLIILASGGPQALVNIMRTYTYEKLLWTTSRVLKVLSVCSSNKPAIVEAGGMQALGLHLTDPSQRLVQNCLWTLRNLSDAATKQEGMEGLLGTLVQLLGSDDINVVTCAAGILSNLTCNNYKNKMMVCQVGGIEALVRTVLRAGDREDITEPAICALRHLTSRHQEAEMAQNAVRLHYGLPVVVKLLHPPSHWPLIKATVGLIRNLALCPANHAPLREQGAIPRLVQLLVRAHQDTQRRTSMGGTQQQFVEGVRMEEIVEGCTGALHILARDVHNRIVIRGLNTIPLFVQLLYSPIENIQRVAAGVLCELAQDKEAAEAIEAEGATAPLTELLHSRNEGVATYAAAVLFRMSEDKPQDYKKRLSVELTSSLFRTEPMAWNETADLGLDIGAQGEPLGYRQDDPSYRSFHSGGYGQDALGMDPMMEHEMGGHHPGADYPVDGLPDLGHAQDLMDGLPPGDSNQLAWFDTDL", "assay": "Competition fluorescence polarization assay (Axin site probe)", "assay_type": "binding", "conditions": "competition fluorescence polarization, Table 2; read-out: in vitro FP EC50", "how_it_was_run": "(§1)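 Competition FP: 15 nM full-length β-catenin pre-incubated 5 min with 20 nM FITC-labelled stapled Axin-site peptide, then titrated peptide added (3-fold series from 5 μM) for 15 min in the dark. Buffer 50 mM Tris pH 8.0, 250 mM NaCl, 2% glycerol, 0.5 mM EDTA; duplicate reads.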", "units": {"EC50": "µM"}}
{"smiles": "CC[C@H](C)[C@@H]1NC(=O)[C@H](Cc2ccccn2)NC(=O)[C@H](C)NC(=O)[C@H](CC(=O)O)NC(=O)[C@H](CC(C)C)NC(=O)[C@H]([C@@H](C)CC)NC(=O)[C@](C)(NC(=O)[C@H](C)NC(C)=O)CCCCCCC=CCOC(=O)N2CC[C@@](C(=O)N[C@H](C(=O)N[C@H](C(=O)N[C@@H](Cc3c[nH]c4ccccc34)C(N)=O)C(C)C)[C@@H](C)CC)(C2)NC1=O", "note": "(single isomer, unassigned) [FP0556c Isomer 1, Ac-A-R8-I-L-D-A-2pyr-I-MB-I-V-W-NH2]", "EC50": "> 5"}
{"smiles": "CC[C@H](C)[C@@H]1NC(=O)[C@H](Cc2c[nH]cn2)NC(=O)[C@H](C)NC(=O)[C@H](CC(=O)O)NC(=O)[C@H](CC(C)C)NC(=O)[C@H]([C@@H](C)CC)NC(=O)[C@](C)(NC(=O)[C@H](C)NC(C)=O)CCCCCCC=CCOC(=O)N2CC[C@@](C(=O)N[C@@H](Cc3cccc4ccccc34)C(=O)N[C@H](C(=O)N[C@@H](Cc3c[nH]c4ccccc34)C(N)=O)C(C)C)(C2)NC1=O", "note": "(single isomer, unassigned) [FP0365c, Ac-A-R8-I-L-D-A-H-I-MB-1NapA-V-W-NH2]", "EC50": "0.1 to 0.5"}
{"smiles": "CC[C@H](C)[C@@H]1NC(=O)[C@H](Cc2ccccn2)NC(=O)[C@H](C)NC(=O)[C@H](CC(=O)O)NC(=O)[C@H](CC(C)C)NC(=O)[C@H]([C@@H](C)CC)NC(=O)[C@](C)(NC(=O)[C@H](C)NC(C)=O)CCCCCCC=CCOC(=O)N2CC[C@@](C(=O)N[C@H](C(=O)N[C@H](C(=O)N[C@@H](Cc3c[nH]c4ccccc34)C(N)=O)C(C)C)[C@@H](C)CC)(C2)NC1=O", "note": "(single isomer, unassigned) [FP0556c Isomer 2, Ac-A-R8-I-L-D-A-2pyr-I-MB-I-V-W-NH2]", "EC50": "> 5"}
{"smiles": "CC[C@H](C)[C@@H]1NC(=O)[C@H](Cc2ccccn2)NC(=O)[C@H](C)NC(=O)[C@H](CC(=O)O)NC(=O)[C@H](CC(C)C)NC(=O)[C@H]([C@@H](C)CC)NC(=O)[C@](C)(NC(=O)[C@H](C)NC(C)=O)CCCCCCC=CCOC(=O)N2CC[C@@](C(=O)N[C@@H](Cc3ccc(OC)cc3)C(=O)N[C@H](C(=O)N[C@@H](Cc3c[nH]c4ccccc34)C(N)=O)C(C)C)(C2)NC1=O", "note": "(single isomer, unassigned) [FP0575c Isomer 1, Ac-A-R8-I-L-D-A-2pyr-I-MB-MeY-V-W-NH2]", "EC50": "> 5"}
{"smiles": "CC[C@H](C)[C@@H]1NC(=O)[C@H](Cc2ccccn2)NC(=O)[C@H](C)NC(=O)[C@H](CC(=O)O)NC(=O)[C@H](CC(C)C)NC(=O)[C@H]([C@@H](C)CC)NC(=O)[C@](C)(NC(=O)[C@H](C)NC(C)=O)CCCCCCC=CCOC(=O)N2CC[C@@](C(=O)N[C@@H](Cc3c[nH]c4ccccc34)C(=O)N[C@H](C(=O)N[C@@H](Cc3c[nH]c4ccccc34)C(N)=O)C(C)C)(C2)NC1=O", "note": "(single isomer, unassigned) [FP0563c Isomer 2, Ac-A-R8-I-L-D-A-2pyr-I-MB-W-V-W-NH2]", "EC50": "> 5"}
{"smiles": "CC[C@H](C)[C@@H]1NC(=O)[C@H](Cc2c[nH]cn2)NC(=O)[C@H](C)NC(=O)[C@H](CC(=O)O)NC(=O)[C@H](CC(C)C)NC(=O)[C@H]([C@@H](C)CC)NC(=O)[C@](C)(NC(=O)[C@H](C)NC(C)=O)CCCCCC=CCN(C)C[C@@](C)(C(=O)N[C@@H](CCCNC(=N)N)C(=O)N[C@H](C(=O)N[C@@H](Cc2c[nH]c3ccccc23)C(N)=O)C(C)C)NC1=O", "note": "[FP0495a, Ac-A-R7-I-L-D-A-H-I-MD-R-V-W-NH2] (Ac-A[X5]ILDAHI[X11]RVW-NH2; staple 2-9)", "EC50": "0.5 to 5"}
{"smiles": "CC[C@H](C)[C@@H]1NC(=O)[C@@]2(NC(=O)[C@H](C)NC(=O)[C@@H]3CCCN3C(C)=O)CCN(CC=CCCCCCC[C@@](C)(C(=O)N[C@@H](CCCNC(=N)N)C(=O)N[C@H](C(=O)N[C@@H](Cc3c[nH]c4ccccc34)C(N)=O)C(C)C)NC(=O)[C@H](C(C)C)NC(=O)[C@H](Cc3c[nH]cn3)NC(=O)[C@H](C)NC(=O)[C@H](CC(=O)O)NC(=O)[C@H](CC(C)C)NC1=O)C2", "note": "[FP0006a, Ac-P-A-MC-I-L-D-A-H-V-S8-R-V-W-NH2] (Ac-PA[X14]ILDAHV[S8]RVW-NH2; staple 3-10)", "EC50": "< 0.1"}
{"smiles": "CC[C@H](C)[C@@H]1NC(=O)[C@H](Cc2ccccn2)NC(=O)[C@H](C)NC(=O)[C@H](CC(=O)O)NC(=O)[C@H](CC(C)C)NC(=O)[C@H]([C@@H](C)CC)NC(=O)[C@](C)(NC(=O)[C@H](C)NC(C)=O)CCCCCCC=CCOC(=O)N2CC[C@@](C(=O)N[C@@H](Cc3ccc(O)cc3)C(=O)N[C@H](C(=O)N[C@@H](Cc3c[nH]c4ccccc34)C(N)=O)C(C)C)(C2)NC1=O", "note": "(single isomer, unassigned) [FP0564c Isomer 1, Ac-A-R8-I-L-D-A-2pyr-I-MB-Y-V-W-NH2]", "EC50": "> 5"}
{"smiles": "CC[C@H](C)[C@@H]1NC(=O)[C@H](Cc2c[nH]cn2)NC(=O)[C@H](C)NC(=O)[C@H](CC(=O)O)NC(=O)[C@H](CC(C)C)NC(=O)[C@H]([C@@H](C)CC)NC(=O)[C@](C)(NC(=O)[C@H](C)NC(C)=O)CCCCC=CCN(C)CC[C@@](C)(C(=O)N[C@@H](CCCNC(=N)N)C(=O)N[C@H](C(=O)N[C@@H](Cc2c[nH]c3ccccc23)C(N)=O)C(C)C)NC1=O", "note": "[FP0502a, Ac-A-R6-I-L-D-A-H-I-MF-R-V-W-NH2] (Ac-A[X7]ILDAHI[X6]RVW-NH2; staple 2-9)", "EC50": "0.5 to 5"}
{"smiles": "CC[C@H](C)[C@@H]1NC(=O)[C@H](Cc2c[nH]cn2)NC(=O)[C@H](C)NC(=O)[C@H](CC(=O)O)NC(=O)[C@H](CC(C)C)NC(=O)[C@H]([C@@H](C)CC)NC(=O)[C@](C)(NC(=O)[C@H](C)NC(C)=O)CCCCCCC=CCOC(=O)N2CC[C@@](C(=O)N[C@@H](Cc3cccc4ccccc34)C(=O)N[C@H](C(=O)N[C@@H](Cc3c[nH]c4ccccc34)C(N)=O)C(C)C)(C2)NC1=O", "note": "(single isomer, unassigned) [FP0365c Isomer 2, Ac-A-R8-I-L-D-A-H-I-MB-1NapA-V-W-NH2]", "EC50": "0.5 to 5"}
{"smiles": "CC[C@H](C)[C@@H]1NC(=O)[C@H](Cc2ccccn2)NC(=O)[C@H](C)NC(=O)[C@H](CC(=O)O)NC(=O)[C@H](CC(C)C)NC(=O)[C@H]([C@@H](C)CC)NC(=O)[C@](C)(NC(=O)[C@H](C)NC(C)=O)CCCCCCC=CCOC(=O)N2CC[C@@](C(=O)N[C@@H](Cc3ccccc3)C(=O)N[C@H](C(=O)N[C@@H](Cc3c[nH]c4ccccc34)C(N)=O)C(C)C)(C2)NC1=O", "note": "(single isomer, unassigned) [FP0555c Isomer 2, Ac-A-R8-I-L-D-A-2pyr-I-MB-F-V-W-NH2]", "EC50": "> 5"}
{"smiles": "CC[C@H](C)[C@@H]1NC(=O)[C@@]2(NC(=O)[C@H](CCC(N)=O)NC(=O)[C@@H]3CCCN3C(C)=O)CCN(C2)C(=O)OCC=CCCC[C@](C)(C(=O)N[C@@H](Cc2c[nH]cn2)C(=O)N[C@H](C(=O)N[C@@H](CCCNC(=N)N)C(=O)N[C@@H](CCCNC(=N)N)C(=O)N[C@H](C(=O)N[C@@H](Cc2c[nH]c3ccccc23)C(=O)N[C@@H](CCCNC(=N)N)C(N)=O)C(C)C)C(C)C)NC(=O)[C@H](CC(=O)O)NC(=O)[C@H](CC(C)C)NC1=O", "note": "(single isomer, unassigned) [FP0743c, Ac-P-Q-MC-I-L-D-R5-H-V-R-R-V-W-R-NH2]", "EC50": "0.5 to 5"}
{"smiles": "CC[C@H](C)[C@@H]1NC(=O)[C@H](Cc2c[nH]cn2)NC(=O)[C@H](C)NC(=O)[C@H](CC(=O)O)NC(=O)[C@H](CC(C)C)NC(=O)[C@H]([C@@H](C)CC)NC(=O)[C@](C)(NC(=O)[C@H](C)NC(C)=O)CN(C)C(=O)OCC=CCOC(=O)N2CC[C@](C(=O)N[C@@H](CCCNC(=N)N)C(=O)N[C@H](C(=O)N[C@@H](Cc3c[nH]c4ccccc34)C(N)=O)C(C)C)(C2)NC1=O", "note": "[FP0605c, Ac-A-ME-I-L-D-A-H-I-MC-R-V-W-NH2] (Ac-A[dαMeDap(Me)]ILDAHI[X3]RVW-NH2; linker 2-9 via X2)", "EC50": "< 0.1"}
{"smiles": "CC[C@H](C)[C@@H]1NC(=O)[C@@](C)(NC(=O)[C@H](CCC(N)=O)NC(=O)[C@@H]2CCCN2C(C)=O)CCCCCC=CCOC(=O)N2CC[C@@](C(=O)N[C@@H](Cc3c[nH]cn3)C(=O)N[C@H](C(=O)N[C@@H](CCCNC(=N)N)C(=O)N[C@@H](CCCNC(=N)N)C(=O)N[C@H](C(=O)N[C@@H](Cc3c[nH]c4ccccc34)C(=O)N[C@@H](CCCNC(=N)N)C(N)=O)C(C)C)C(C)C)(C2)NC(=O)[C@H](CC(=O)O)NC(=O)[C@H](CC(C)C)NC1=O", "note": "(single isomer, unassigned) [FP0763c, Ac-P-Q-S7-I-L-D-MB-H-V-R-R-V-W-R-NH2]", "EC50": "0.1 to 0.5"}
{"molecular_target": "T1, full-length beta-catenin (Axin site)", "assay": "Competition fluorescence polarization assay (Axin site probe)", "assay_type": "binding", "conditions": "competition with FITC labeled Axin-site probe, 15 nM full-length beta-catenin; read-out: FP EC50", "how_it_was_run": "as §1", "units": {"EC50": "µM"}}
{"smiles": "CC[C@H](C)[C@@H]1NC(=O)[C@@](C)(NC(=O)[C@H](CCC(N)=O)NC(=O)[C@@H]2CCCN2C(C)=O)CCCCCC=CCOC(=O)N2CC(C(=O)N[C@@H](Cc3c[nH]cn3)C(=O)N[C@H](C(=O)N[C@@H](CCCNC(=N)N)C(=O)N[C@@H](CCCNC(=N)N)C(=O)N[C@H](C(=O)N[C@@H](Cc3c[nH]c4ccccc34)C(=O)N[C@@H](CCCNC(=N)N)C(N)=O)C(C)C)C(C)C)(C2)NC(=O)[C@H](CC(=O)O)NC(=O)[C@H](CC(C)C)NC1=O", "note": "(single isomer, unassigned) [FP-0738c, Ac-P-Q-S7-I-L-D-Az-H-V-R-R-V-W-R-NH2]", "EC50": 1.8}
